# Test results published in patent publication EP4711365A1 (Shanghai Hansoh Biomedical Co., Ltd., priority 2023, dated 2024).
# Columns and labels:
# [1] = target: T1, human IL-17RA and IL-17A proteins (Homo sapiens, UniProt Q16552); test: Competitive ELISA: blocking of binding between human IL-17RA and IL-17A; conditions: coated IL-17A, IL-17RA 5 nM
# T1 sequence (Q16552 24-155): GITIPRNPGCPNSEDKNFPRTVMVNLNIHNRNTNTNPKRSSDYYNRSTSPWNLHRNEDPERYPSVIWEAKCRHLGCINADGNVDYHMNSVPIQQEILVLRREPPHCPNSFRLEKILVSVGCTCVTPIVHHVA
# Protocol: Test example 1 Assay for competitive binding effect between compounds of the present invention and human IL-17 receptor for ligand
# 1. Experimental objective: to quantitatively determine the blocking effect of the compound on the binding between human IL-17RA and IL-17A proteins using competitive ELISA under in vitro conditions. 2. Experimental instruments and reagents: 2.1 Instruments:
# 2.2 Reagents: 3. Experimental method: IL-17A at 0.0625 µg/mL was coated in a 96-well plate at 4°C overnight at 100 µL per well. The plate was washed with PBST (300 µL/well x 4), and then blocked at 24°C for 2 h by adding 300 µL of ELISA Blocker blocking buffer to each well. The plate was further washed under the same conditions. 80 µL of PBS solution containing 1% BSA and 10 µL of 10× test compound solution were added to each well and mixed uniformly, and then the mixture was incubated at room temperature for 1 hour. After that, 10 µL of IL-17RA solution was added to a final concentration of 5 nM and mixed uniformly, and then the mixture was incubated at 24°C for 1 h. The corresponding concentration and volume of DMSO solution without compounds was added to positive control wells, and 1% BSA solution without IL-17RA was added to negative control wells.
# After the plate was washed four times, 100 µL of the anti-Fc tag HRP-conjugated antibody was added, and the mixture was incubated at 37°C for 1 h. After the plate was washed four times, 100 µL of TMB substrate was added to each well, and the mixture was incubated at 37°C in the dark. After colour development was completed, the reaction was terminated by adding 100 µL of stop solution to each well, and the absorbance was measured at wavelengths of 450 nm and 570 nm using a microplate reader.
# • 1) Inhibition rate (%): The original data (OD450-OD570) was calculated according to the following formula to obtain the inhibition rate. Inhibition rate% = [(average value of positive control wells - value of sample wells)/(average value of positive control wells - average value of negative control wells)] × 100, where the positive control wells are wells without compounds, and the negative control wells are wells without IL-17RA protein solution. • 2) Curve fitting: Log(inhibitor) vs. response -- Variable slope (four parameters) in GraphPad Prism 8 was used for fitting equation analysis of the compound concentration and the corresponding inhibition rate, and the curve was fitted to obtain the IC50 value of the compound. The fitting calculation equation was Y = Bottom + (Top - Bottom) / (1 + 10^((LogIC50 - X) * HillSlope)).
# [2] = system: Groα secretion by HT-29 cells; test: Inhibition of Groα secretion by HT-29 cells stimulated with IL-17A (ELISA); assay type: cell-based, Human; conditions: Homo sapiens, IL-17A 30 ng/ml, 48 hours, Groα in supernatant
# Protocol: Test example 2 Assay for inhibitory effect of compounds of the present invention against Groα secretion by HT-29 cells
# Experimental objective: to measure the inhibitory effect of the compounds against Groα secretion by HT-29 cells, thereby evaluating the inhibition of the compounds on IL-17A pathway.
# Experimental method: A cell suspension at 50,000 cells/ml was prepared, and 200 µl of the cell suspension was added to each well of a 96-well plate, i.e., 10,000 cells/well. The plate was cultured overnight. In the 96-well V-bottom plate, 5 mM compound solution was serially diluted 3-fold using DMSO, and the compound from each well was diluted 100-fold using a complete culture medium. IL-17A protein (R&D, #BT7955-025/CF) with a stock concentration of 100 µg/ml was diluted 333.33-fold using a complete culture medium. The compound and IL-17A were mixed at a volume ratio of 1:1 and incubated at 37°C for 30 minutes. 50 µl of a mixture of the compound and IL-17A was added to cell wells, and the final concentration of IL-17A protein was 30 ng/ml.
# The mixture was incubated in a 37°C, 5% CO2 cell culture incubator for 48 hours. The concentration of Groα in the supernatant was determined by ELISA method using Human Groα Valukin Elisa kit (Biotechne, # VAL139), and the absorbance intensity at 450 nm was measured using a microplate reader (PE, EnVision2105). Data were analysed using GraphPad Prism 8.3.0.
# Experimental data processing method: Data were analysed using GraphPad Prism 8.3.0.
# Inhibition rate% = [(average value of positive control wells - value of sample wells)/(average value of positive control wells - average value of negative control wells)] × 100%, where the sample wells are wells containing cells plus compounds at different concentration gradients, the positive control wells are wells containing cells plus IL-17A, and the negative control wells are wells containing culture medium plus IL-17A.
# Curve fitting: The IC50 value was obtained by curve fitting based on the inhibition rate (%) at each concentration using the log(inhibitor) vs. responseVariable slope (four parameters) in GraphPad Prism 6.0, and the calculation equation was Y = Bottom + (Top-Bottom)/(1+10^((LogIC50-X)*HillSlope)).
# [3] = Pharmacokinetic assay in Wistar rats, oral; conditions: rat, plasma, 30 mg/kg
Compound,IC50 [1],IC50 [2],also measured
CC1(C)COCCN1C[C@H](c1cnc(NC(=O)[C@@H](NC(=O)C2(F)CC2)[C@H]2CC[C@H](C)CC2)s1)N1CC(F)(F)CNC1=O [Example 723],5 nM,4 nM,–
C[C@@H]1CN(C[C@H](c2cnc(NC(=O)[C@@H](NC(=O)C(F)(F)C3CC3)[C@H]3CC[C@H](C)CC3)s2)N2CC(F)(F)CNC2=O)C[C@H](C)O1 [Example 725],5.6 nM,2.5 nM,–
C[C@H]1CC[C@H]([C@H](NC(=O)C(F)(F)C2CC2)C(=O)Nc2ncc([C@@H](CN3CCO[C@H](CF)C3)N3CC(F)(F)CNC3=O)s2)CC1 [Example 700],3.4 nM,2.6 nM,–
C[C@@H]1CN(C[C@H](c2cnc(NC(=O)[C@@H](NC(=O)C3(F)CC3)[C@H]3CC[C@H](C)CC3)s2)N2CC(F)(F)CNC2=O)C[C@@H](C)O1 [Example 726],4.8 nM,1.8 nM,–
C[C@H]1CN(C[C@H](c2cnc(NC(=O)[C@@H](NC(=O)C3(F)CC3)[C@H]3CC[C@H](C)CC3)s2)N2CC(F)(F)CNC2=O)CCO1 [Example 1013],9 nM,9 nM,–
COC[C@H](c1cnc(NC(=O)[C@@H](NC(=O)c2nonc2C)[C@H]2CC[C@H](C)CC2)s1)n1cc(Cl)ccc1=O [Example 569],5 nM,–,–
C[C@@H]1CN(C[C@H](c2cnc(NC(=O)[C@@H](NC(=O)C3(F)CC3)[C@H]3CC[C@H](C)CC3)s2)N2CC(F)(F)CNC2=O)C[C@H](C)O1 [Example 724],6 nM,4 nM,–
CCc1nonc1C(=O)N[C@H](C(=O)Nc1ncc([C@@H](C2CCOCC2)n2cc(Cl)ccc2=O)s1)[C@H]1CC[C@H](C)CC1 [Example 532],7.9 nM,7.9 nM,–
C[C@H]1CC[C@H]([C@H](NC(=O)C2(F)CC2)C(=O)Nc2ncc([C@@H](CN3CCOC4(CC4)C3)N3CC(F)(F)CNC3=O)s2)CC1 [Example 721],4 nM,–,–
[2H]C([2H])([2H])O[C@H]1CCN(C[C@H](c2cnc(NC(=O)[C@@H](NC(=O)C3(F)CC3)[C@H]3CC[C@H](C)CC3)s2)N2CC(F)(F)CNC2=O)C[C@H]1F [Example 782],4 nM,4 nM,–
COC[C@H](c1cnc(NC(=O)[C@@H](NC(=O)C2(F)CC2)[C@H]2CC[C@H](C)CC2)s1)N1CC(F)(F)CNC1=O [Example 592],6.4 nM,–,–
C[C@@H]1COCCN1C[C@H](c1cnc(NC(=O)[C@@H](NC(=O)C2(F)CC2)[C@H]2CC[C@H](C)CC2)s1)N1CC(F)(F)CNC1=O [Example 1015],4 nM,6 nM,–
[2H]C1([2H])NC(=O)N([C@H](COC)c2cnc(NC(=O)[C@@H](NC(=O)OC3CC3)[C@H]3CC[C@H](C)CC3)s2)C([2H])([2H])C1(F)F [Example 559],4.3 nM,–,AUC(0-t) [3]: 12700 ng·h/mL; Cmax [3]: 2190 ng/mL; Tmax [3]: 2 h; half-life [3]: 2.7 h
[2H]C([2H])([2H])O[C@@H]1CCN(C[C@H](c2cnc(NC(=O)[C@@H](NC(=O)C3(F)CC3)[C@H]3CC[C@H](C)CC3)s2)N2CC(F)(F)CNC2=O)C[C@@H]1F [Example 781],5 nM,10 nM,–
CC1CCC([C@H](NC(=O)C2(F)CC2)C(=O)Nc2ncc(C(CN3CCOCC3)N3CC(F)(F)CNC3=O)s2)CC1 (some centres unmarked) [Example 601],4.1 nM,7.5 nM,–
C[C@H]1CN(C[C@H](c2cnc(NC(=O)[C@@H](NC(=O)C3(F)CC3)[C@H]3CC[C@H](C)CC3)s2)N2CC(F)(F)CNC2=O)C[C@H](C)O1 [Example 730],6.7 nM,–,–
C[C@H]1CN(C[C@H](c2cnc(NC(=O)[C@@H](NC(=O)C3(F)CC3)[C@H]3CC[C@H](C)CC3)s2)N2CC(F)(F)CNC2=O)[C@@H](C)CO1 [Example 734],2.9 nM,2 nM,–
C[C@H]1CC[C@H]([C@H](NC(=O)C2(F)CC2)C(=O)Nc2ncc([C@@H](CN3CCO[C@@H](CF)C3)N3CC(F)(F)CNC3=O)s2)CC1 [Example 703],7.5 nM,7 nM,–
CC1(C)CN(C[C@H](c2cnc(NC(=O)[C@@H](NC(=O)C3(F)CC3)[C@H]3CC[C@H](C)CC3)s2)N2CC(F)(F)CNC2=O)CCO1 [Example 718],5 nM,8 nM,–
C[C@H]1CC[C@H]([C@H](NC(=O)OC2CC2)C(=O)Nc2ncc([C@@H](CC3CC3)N3CC(F)(F)CNC3=O)s2)CC1 [Example 524],3.6 nM,9.3 nM,–
CCc1nonc1C(=O)NC(C(=O)Nc1ncc(C(COC)N2CC(C(F)(F)F)NC2=O)s1)C1CCC(C)CC1 (centres unmarked) [Example 521],1.3 nM,2 nM,–
C[C@H]1CC[C@H]([C@H](NC(=O)C2(F)CC2)C(=O)Nc2ncc([C@@H](CN3CCC(F)CC3)N3CC(F)(F)CNC3=O)s2)CC1 [Example 760],7 nM,5.7 nM,–
"C[C@H]1CC[C@H]([C@H](NC(=O)C2(F)CC2)C(=O)Nc2ncc([C@@H](CN3CCO[C@H](CF)C3)N3CC(F)(F)CNC3=O)s2)CC1 [Example 696, N-((S)-2-((5-((R)-1-(5,5-difluoro-2-oxotetrahydropyrimidin-1(2H)-yl)-2-((S)-2-(fluoromethyl)morpholino)ethyl)thiazol-2-yl)amino)-1-((1r,4S)-4-methylcyclohexyl)-2-oxoethyl)-1-fluorocyclopropane-1-carboxamide]",5 nM,2 nM,–
"[2H]C1([2H])NC(=O)N([C@H](COC)c2cnc(NC(=O)[C@@H](NC(=O)C3(F)CC3)[C@H]3CC[C@H](C)CC3)s2)C([2H])([2H])C1(F)F [Example 688, N-((S)-2-((5-((R)-1-(5,5-difluoro-2-carbonyltetrahydropyrimidin-1(2H)-yl-4,4,6,6-d4)-2-methoxyethyl)thiazol-2-yl)amino)-1-((1r,4S)-4-methylcyclohexyl)-2-carbonylethyl)-1-fluorocyclopropane-1-carboxamide]",5.1 nM,–,–
CC[C@@H]1CN(C[C@H](c2cnc(NC(=O)[C@@H](NC(=O)C3(F)CC3)[C@H]3CC[C@H](C)CC3)s2)N2CC(F)(F)CNC2=O)CCO1 [Example 704],4.9 nM,6.5 nM,–
COC1CCN(C[C@H](c2cnc(NC(=O)[C@@H](NC(=O)C3(F)CC3)[C@H]3CC[C@H](C)CC3)s2)N2CC(F)(F)CNC2=O)CC1 [Example 777],8 nM,5.3 nM,–
C[C@@H]1CN(C[C@H](c2cnc(NC(=O)[C@@H](NC(=O)C(F)(F)C3CC3)[C@H]3CC[C@H](C)CC3)s2)N2CC(F)(F)CNC2=O)C[C@@H](C)O1 [Example 727],3.3 nM,1.2 nM,–
COCC(c1cnc(NC(=O)C(NC(=O)OC2CC2)C2CCC(C)CC2)s1)N1CC(C(F)(F)F)NC1=O (centres unmarked) [Example 522],6.2 nM,–,–
